# Counter-ions that a name gives are not always drawn.
# Tests used:
# [1] = test system: Sprague Dawley rats
# Method: This study examined acute toxicity from single IV administration of mCBS in rats with doses up to 1000 mg/kg.
# The acute toxicity of β-O-methyl cellobioside sulfate (mCBS) was assessed in Sprague Dawley rats following intravenous administration of a single bolus dose. A total of five groups of n=3 adult female rats were treated with 10, 30, 100, 300 and 1000 mg/kg doses of mCBS test item in the form of the sodium salt (mCBS.Na) in this dose range finding study. […] The rats were then observed for 7 days prior to termination without necropsy.
# [2] = test system: Beagle dogs; experiment: Phase 2, continuous intravenous infusion at the MTD for 6 additional days; format: in vivo, dog
# Method: Following confirmation of the MTD (2788 mg/kg/day), the dogs were then transferred to Phase 2 of the study, and the dosing administration was resumed at the MTD for 6 additional days of continuous infusion as indicated in Table 16 below.
# Following completion of the additional 6 days of continuous infusion and collection of the last toxicokinetic blood samples, all animals were euthanized and subjected to a necropsy examination on Day 8. Histological examination was performed on the liver and kidneys of all animals.
# [3] = test system: HMEC-1; experiment: Histone-induced calcium flux in endothelial cells; format: cell-based, human; conditions: mCBS 100 μg ml−1, histones 100 μg ml−1
# Method: Calcium flux studies in endothelial cells. HMEC-1 (2×10^7 ml^−1) in RPMI-1640 medium were incubated with Indo-1 AM (5 μM)(ThermoFisher) at 37° C. for 60 min. […] The cell suspension was kept on ice and used within 3 h. Intracellular Ca^2+ flux was monitored using flow cytometry. The cells were pre-equilibrated and maintained at 37° C. during analysis using an external sheath connected to a heated water bath. After the exclusion of cellular debris and clumped cells (on the basis of FSC/SSC light scattering) the basal Ca^2+ level was monitored for 2 min before histone addition in the presence/absence of novel compounds. Ca^2+ levels were measured at 1, 4 and 10 min post-histone addition with a constant flow rate (˜300 events/sec). Ca^2+ flux was determined as an increase in the ratio of geometric mean fluorescence intensity (GMFI) of Ca^2+-bound over Ca^2+-unbound Indo-1.
smiles,measurement,setting,value
"CO[C@@H]1O[C@H](COS(=O)(=O)O)[C@@H](O[C@@H]2O[C@H](COS(=O)(=O)O)[C@@H](OS(=O)(=O)O)[C@H](OS(=O)(=O)O)[C@H]2OS(=O)(=O)O)[C@H](OS(=O)(=O)O)[C@H]1OS(=O)(=O)O [mCBS, β-O-methyl cellobioside sulfate]","MTD estimate from potency assessment, free base","[1]; IV bolus single and 7-day studies, corrected for potency",~600 mg/kg
same,"Maximum Tolerated Dose (MTD), as free base","[1]; single IV bolus, corrected for purity and sodium content",815 mg/kg
same,tolerability,[2]; 2788 mg/kg/day continuous IV infusion,well tolerated
same,t1/2 after end of infusion,"[2]; 2788 mg/kg/day, both animals",approximately 1 hour
same,histone-induced Ca2+ flux,[3],substantially inhibited the response

# Reference: patent US11628179B2, “Compounds for treating and preventing extracellular histone mediated pathologies” (priority 2017, dated 2023)
